The values below come from ChEMBL document CHEMBL3880410, “Novel oxabispidine compounds and their use in the treatment of cardiac arrhythmias” (2009).

SMILES strings stand for the structures. Some results are limits rather than exact numbers.

The experiment deals with Cavia porcellus. The experiment is described as follows: Anti-cardiac arrhythmia activity in anaesthetised guinea pig assessed as cumulative dose inducing prolongation of monophasic action potential duration by 10% from baseline administered as first dose infusion in 0.2 mL/kg into jugular vein catheter for 30 secs followed by next dosing after 5 mins for 6 to 10 consecutive times by electrophysiology based assay. The format is functional.
Turning to `CN(CCN1CC2CN(Cc3ccc(C#N)cc3F)CC(C1)O2)S(=O)(=O)c1ccc(C#N)cc1`, the D10 was >5.5 mg/kg.

`N#Cc1ccc(OCCCN2CC3CN(CCNS(=O)(=O)c4ccccc4)CC(C2)O3)cc1`: the D10 was >5.5 mg/kg.

In the case of `N#Cc1ccc(S(=O)(=O)NCCN2CC3CN(Cc4c[nH]c5ccccc45)CC(C2)O3)cc1`, the D10 is >5.5 mg/kg.

On to `N#Cc1cccc(S(=O)(=O)NCCN2CC3CN(CCOc4ccc(C#N)cc4F)CC(C2)O3)c1`, for which the D10 is >5.5 mg/kg.

Take `N#Cc1ccc(CN2CC3CN(CCNS(=O)(=O)c4ccc(F)cc4)CC(C2)O3)cc1`: the D10 is >5.5 mg/kg.

For the compound `N#Cc1ccc(S(=O)(=O)NCCCN2CC3CN(CCc4c(F)cccc4F)CC(C2)O3)cc1`, the D10 was >5.5 mg/kg.

`Cc1noc(C)c1S(=O)(=O)NCCCN1CC2CN(CCOc3ccc(C#N)cc3)CC(C1)O2`: the D10 was >5.5 mg/kg.

On to `N#Cc1ccc(OCCCN2CC3CN(CCNS(=O)(=O)c4ccccc4OC(F)(F)F)CC(C2)O3)cc1`, for which the D10 is >5.5 mg/kg.

For the compound `N#Cc1ccc(S(=O)(=O)NCCN2CC3CN(CCc4ccccc4)CC(C2)O3)cc1`, the D10 is >5.5 mg/kg.

With `Cc1noc(C)c1S(=O)(=O)NCCCN1CC2CN(CCCOc3ccc(C#N)cc3)CC(C1)O2`, the D10 is >5.5 mg/kg.

In the case of `CN(CCN1CC2CN(CCc3ccc(F)c(F)c3)CC(C1)O2)S(=O)(=O)c1ccc(C#N)cc1`, the D10 is >5.5 mg/kg.

As for `CCCCS(=O)(=O)NCCN1CC2CN(CCCOc3ccc(C#N)cc3)CC(C1)O2`, the D10 was >5.5 mg/kg.

Turning to `COc1ccc(S(=O)(=O)NCCN2CC3CN(CCCOc4ccc(C#N)cc4)CC(C2)O3)cc1`, the D10 is >5.5 mg/kg.

In the case of `N#Cc1ccc(S(=O)(=O)NCCN2CC3CN(CCc4c(F)cccc4F)CC(C2)O3)cc1`, the D10 was >5.5 mg/kg.

As for `N#Cc1ccc(CNS(=O)(=O)CCN2CC3CN(Cc4ccc(C#N)cc4)CC(C2)O3)cc1`, the D10 is >5.5 mg/kg.

Regarding `N#Cc1ccc(S(=O)(=O)NCCN2CC3CN(CCc4ccc(Cl)cc4)CC(C2)O3)cc1`, the D10 was >5.5 mg/kg.

Take `N#Cc1ccc(CN2CC3CN(CCNS(=O)(=O)c4ccc(C#N)cc4)CC(C2)O3)cc1`: the D10 is >5.5 mg/kg.

Regarding `N#Cc1ccc(S(=O)(=O)NCCCN2CC3CN(CCCOc4ccc(F)cc4)CC(C2)O3)cc1`, the D10 is >5.5 mg/kg.

Turning to `N#Cc1ccc(CNS(=O)(=O)CCN2CC3CN(CCc4ccc(F)cc4)CC(C2)O3)cc1`, the D10 was >5.5 mg/kg.

For `N#Cc1ccc(S(=O)(=O)NCCCN2CC3CN(Cc4ccccc4)CC(C2)O3)cc1`, the D10 is >5.5 mg/kg.

For the compound `N#Cc1ccc(OCCCN2CC3CN(CCNS(=O)(=O)c4ccc5c(c4)CCO5)CC(C2)O3)cc1`, the D10 is >5.5 mg/kg.

Take `CN(CCN1CC2CN(CCCOc3ccc(F)cc3)CC(C1)O2)S(=O)(=O)c1ccc(C#N)cc1`: the D10 is >5.5 mg/kg.

Consider `N#Cc1ccc(S(=O)(=O)NCCN2CC3CN(Cc4ccc(C#N)cc4F)CC(C2)O3)cc1`, for which the D10 was >5.5 mg/kg.

In the case of `N#Cc1ccc(OCCN2CC3CN(CCCNS(=O)(=O)c4ccccc4F)CC(C2)O3)cc1`, the D10 is >5.5 mg/kg.

Consider `N#Cc1ccc(S(=O)(=O)NCCN2CC3CN(Cc4coc5ccccc45)CC(C2)O3)cc1`, for which the D10 was >5.5 mg/kg.

As to `N#Cc1ccc(CN2CC3CN(CCCNS(=O)(=O)c4ccc(C#N)cc4)CC(C2)O3)cc1`, the D10 is >5.5 mg/kg.

As for `N#Cc1ccc(OCCN2CC3CN(CCCNS(=O)(=O)c4ccc(F)cc4)CC(C2)O3)c(F)c1`, the D10 was >5.5 mg/kg.

Take `N#Cc1ccc(OCCN2CC3CN(CCNS(=O)(=O)Cc4ccc(C(F)(F)F)cc4)CC(C2)O3)cc1`: the D10 was >5.5 mg/kg.

Take `Cc1noc(C)c1S(=O)(=O)NCCN1CC2CN(CCCOc3ccc(C#N)cc3)CC(C1)O2`: the D10 is >5.5 mg/kg.

With `N#Cc1ccc(S(=O)(=O)NCCN2CC3CN(CCCOc4ccc(F)cc4F)CC(C2)O3)cc1`, the D10 is >5.5 mg/kg.

As to `CN(CCN1CC2CN(CCc3cccc(F)c3)CC(C1)O2)S(=O)(=O)c1ccc(C#N)cc1`, the D10 is >5.5 mg/kg.

For the compound `CN(CCN1CC2CN(Cc3ccccc3)CC(C1)O2)S(=O)(=O)c1ccc(C#N)cc1`, the D10 is >5.5 mg/kg.

Regarding `Cc1nn(C)c(Cl)c1S(=O)(=O)NCCN1CC2CN(CCCOc3ccc(C#N)cc3)CC(C1)O2`, the D10 is >5.5 mg/kg.
